Measured values published in patent publication US20210283089A1, “Use of fumaric acid esters and pharmaceutically acceptable salts thereof in preparing pharmaceuticals for treating ferroptosis-related diseases” (XIANGYA HOSPITAL CENTRAL SOUTH UNIVERSITY, priority 2018, published 2021).
Where a name gives a salt, the structure may show the parent alone.

Assays:
[1] = test system: HepG2 and LO2 cells; assay: Determination test of cell membrane lipid peroxidation level (MDA detection kit); format: cell-based, Human; details: 6 h; for cell membrane lipid peroxidation level (stimulus alone): 80 mM ethanol or 10 μM DOX alone
Procedure: Human hepatocytes HepG2 and LO2 cells are obtained from the cell bank of Xiangya Hospital. The medium is DMEM medium (HyClone, SH30022.01) and RPMI medium (HyClone, SH30809.01) containing 10% fetal bovine serum (Gibco, 10091148) and 100 U/mL ampicillin+streptomycin double-antibody (Gibco, 10378016). The cell incubator conditions are 37° C., constant temperature and humidity, and constant carbon dioxide concentration of 5%. DMSO, 1 μM of Erastin, 80 mM of ethanol, 10 μM of DOX, 10 μM DOX+10 μM dimethyl fumarate, 10 μM DOX+10 μM monomethyl fumarate, 10 μM DOX+1 μM Ferrostatin-1, 80 mM ethanol+10 μM dimethyl fumarate, 80 mM ethanol+10 μM monomethyl fumarate, and 80 mM ethanol+1 μM Ferrostatin-1 are respectively added to monolayer adherent hepatocytes HepG2 and LO2 cells. After being incubated for 6 h, the cells are gently rinsed with PBS buffer pre-cooled at 4° C. for 3 times, and every 1 million cells are homogenized with 0.1 mL of IP lysate (Beyotime, […]), and supernatant is collected after centrifugation at 4° C. The cell membrane lipid peroxidation level is measured by MDA detection kit (Beyotime, […]), specific operations are performed according to the instructions, and the test is repeated for three times.

[2] = test system: GPX4 protein level of HepG2 and LO2 cells; assay: Western Blot test 2: GPX4 protein level, DOX stimulation; format: cell-based, Human; details: 6 h
Procedure: The medium is DMEM medium (HyClone, SH30022.01) and RPMI medium (HyClone, SH30809.01) containing 10% fetal bovine serum (Gibco, 10091148) and 100 U/mL ampicillin+streptomycin double-antibody (Gibco, 10378016). The cell incubator conditions are 37° C., constant temperature and humidity, and constant carbon dioxide concentration of 5%. 10 μM of DOX, 10 μM DOX+10 μM dimethyl fumarate, 10 μM DOX+10 μM monomethyl fumarate, and 10 μM DOX+1 μM Ferrostatin-1 are respectively added to monolayer adherent hepatocytes HepG2 and LO2 cells. After being incubated for 6 h, the cells are gently rinsed with PBS buffer pre-cooled at 4° C. for 3 times, and then a total protein of the cells is extracted with RIPA lysate (Beyotime, P0013B). Specific operations are performed according to the instructions. After the concentration of the extracted protein is determined by BCA protein concentration determination kit (Beyotime, [MUT]), it is stored at -20° C. for later use. Each histone sample and 2×Loading Buffer are prepared at a volume ratio of 1:1, and placed in a metal bath at 100° C. to boil and denature for 10 min, then placed on ice to cool for 5 min, and a sample is waited to be loaded. Specific operations are performed according to the instructions. The test is repeated for three times.

[3] = test system: GPX4 protein level of HepG2 and LO2 cells; assay: Western Blot test 1: GPX4 protein level, ethanol stimulation; format: cell-based, Human; details: 6 h
Procedure: Human hepatocytes HepG2 and LO2 cells are obtained from the cell bank of Xiangya Hospital. The medium is DMEM medium (HyClone, SH30022.01) and RPMI medium (HyClone, SH30809.01) containing 10% fetal bovine serum (Gibco, 10091148) and 100 U/mL ampicillin+streptomycin double-antibody (Gibco, 10378016). The cell incubator conditions are 37° C., constant temperature and humidity, and constant carbon dioxide concentration of 5%. […] After being incubated for 6 h, the cells are gently rinsed with PBS buffer pre-cooled at 4° C. for 3 times, and then extracted for total protein of the cells with RI PA lysate (Beyotime, P0013B). Specific operations are performed according to the instructions. After the concentration of the extracted protein is determined by BCA protein concentration determination kit (Beyotime, [MUT]), it is stored at -20° C. for later use. Each group of protein sample and 2×Loading Buffer is prepared at a volume ratio of 1:1, and placed in a metal bath at 100° C. to boil and denature for 10 min, then placed on ice to cool for 5 min, and a sample is waited to be loaded. Specific operations are performed according to the instructions. The test is repeated for three times.

[4] = test system: HepG2 cells; assay: GSH and GSSG level determination test; format: cell-based, Human; details: 10 μM and 30 μM, incubated 20 h; concentration-dependent
Procedure: Human hepatocytes HepG2 and LO2 cells are obtained from the cell bank of Xiangya Hospital. The medium is DMEM medium (HyClone, SH30022.01) and RPMI medium (HyClone, SH30809.01) containing 10% fetal bovine serum (Gibco, 10091148) and 100 U/mL ampicillin+streptomycin double-antibody (Gibco, 10378016). The cell incubator conditions are 37° C., constant temperature and humidity, and constant carbon dioxide concentration of 5%. Monolayer adherent HepG2 cells are digested with a trypsin into single-cell suspension, and the cells are plated on a 96-well plate at 4000 cells/well. After the cells are adhered for 4-6 h, DMSO, 10 μM of dimethyl fumarate, 30 μM of dimethyl fumarate, 10 μM of monomethyl fumarate and 30 μM of monomethyl fumarate are respectively added to the cell culture plate, and incubated for 20 h, GSH/GSSG-Glo™ Assay Kit (Promega, V6611) is used to detect the total GSH and GSSH of the cells. Specific operations are performed according to the instructions, and the experiment is repeated for three times.

[5] = test system: mouse liver of alcoholic fatty liver disease model; assay: Inhibition test of ferroptosis in mouse liver of alcoholic fatty liver disease model; format: in vivo, C57BL/6 male mice; details: 100 mg/Kg or 200 mg/Kg, intragastric, once a day, 10 consecutive days; versus model group
Procedure: 24 8-week-old SPF-grade C57BL/6 male mice are randomly divided into 4 groups, namely a blank group, a model group, a model+low-dose dimethyl fumarate (100 mg/Kg) group and a model+high-dose dimethyl fumarate (200 mg/Kg) group. The mice are let free to drink Lieber-DeCarli control diet for 5 days to gradually adapt to liquid diet and tube feeding. Subsequently, the model group is allowed to drink freely with 5% (volume/volume) standard Lieber-DeCarli alcohol liquid diet for 10 days, while the control group uses isocaloric control diet. From the 11-th day, the model+administration group is respectively administrated with dimethyl fumarate (100 mg/Kg) and dimethyl fumarate (200 mg/Kg) by intragastric administration once a day for 10 consecutive days. After that, the mice are anesthetized with 5% chloral hydrate in abdominal cavity, and liver tissues are collected, partly fixed in 10% formalin, and partly stored in liquid nitrogen. Then the following tests are separately performed (the dimethyl fumarate in the drawings of the description is represented by DMF):
(§1) A specific method is as follows: a mouse liver tissue sample fixed in 10% formalin is dehydrated, paraffin-immersed and embedded, and the paraffin-embedded tissue is sectioned. […]
(§2) A specific method is as follows: the paraffin-embedded tissue sections are baked in a constant temperature oven at 65° C. for 60 min to dissolve the paraffin, and then sequentially put in xylene to dewax and be transparent, and hydrated in ethanol solution with the concentrations from high to low. After the tissue sections are rinsed with PBS solution, a reagent A in a ready-to-use immunohistochemical hypersensitive UltraSensitive™ SP kit (Maixin Biotech Company, KIT-9707) is respectively added dropwise to remove an endogenous peroxidase from the tissues, and a reagent B is blocked by goat serum. […]

[6] = test system: mouse liver of hepatic fibrosis model; assay: Inhibition test of ferroptosis in mouse liver of hepatic fibrosis model; format: in vivo, SD mice; details: 15 mg/Kg or 25 mg/Kg, intragastric, once a day, 8 weeks; versus model group
Procedure: 36 7-week-old SPF-grade SD mice of 200-250 g are randomly divided into 4 groups, namely a control group, a model group, a model+low-dose dimethyl fumarate (15 mg/Kg) group and a model+high-dose dimethyl fumarate (25 mg/Kg) group. In the model group, subcutaneous injection of 0.3 ml/100 g of 40% CCI4 peanut oil solution is used for modeling twice a week. It is started from the second week, 10% alcohol is used as the only beverage, the mice are fed with a corn meal feed mixed with 0.5% cholesterol, and modeling is continuously performed for 8 weeks. At the same time of modeling, the model+administration group are respectively given with dimethyl fumarate (15 mg/Kg) and dimethyl fumarate (25 mg/Kg) once a day by intragastric administration for 8 consecutive weeks. After that, the mice are anesthetized with 5% chloral hydrate in abdominal cavity, and the liver tissues are collected, partly fixed in formalin, and partly stored in liquid nitrogen. Then the following tests are separately performed (the dimethyl fumarate in the drawings of the description is represented by DMF):
as §1, §2

[7] = 10 μM DOX + 10 μM test substance
[8] = 80 mM ethanol + 10 μM test substance

| Compound | cell membrane lipid peroxidation level (stimulus alone) [1] | GPX4 protein level (DOX alone) ([2]; 10 μM DOX) | GPX4 protein level (ethanol alone) ([3]; 80 mM ethanol) | GSH level of the HepG2 cells [4] | GSSH level of the HepG2 cells [4] | cell membrane lipid peroxidation level caused by DOX [1, 7] | cell membrane lipid peroxidation level caused by ethanol [1, 8] | GPX4 protein level of ethanol-stimulated cells [3, 8] | GPX4 protein level of DOX-stimulated cells [2, 7] | fatty degeneration of the hepatocytes and pericentral periphlebitis (H&E staining) [5] | liver 4-HNE protein level (immunohistochemistry) [5] | liver GPX4 protein level (immunohistochemistry, Western blot) [5] | liver 4-HNE protein level (immunohistochemistry) [6] | liver GPX4 protein level (immunohistochemistry) [6] | liver pathological changes (fatty degeneration, necrosis, periportal inflammation, fibrosis; H&E and Sirius Red staining) [6] |
| --- | --- | --- | --- | --- | --- | --- | --- | --- | --- | --- | --- | --- | --- | --- | --- |
| COc1cccc2c1C(=O)c1c(O)c3c(c(O)c1C2=O)C[C@@](O)(C(=O)CO)C[C@@H]3O[C@H]1C[C@H](N)[C@H](O)[C@H](C)O1 [DOX, doxorubicin] | significantly up-regulate | significantly down-regulate |  |  |  |  |  |  |  |  |  |  |  |  |  |
| CCO [ethanol] | significantly up-regulate |  | significantly down-regulate |  |  |  |  |  |  |  |  |  |  |  |  |
| COC(=O)/C=C/C(=O)OC [dimethyl fumarate, Dimethyl fumarate] |  |  |  | significantly up-regulate | significantly up-regulate | significantly inhibit | significantly inhibit | significantly up-regulate | significantly up-regulate | significantly reduced | significantly down-regulated | significantly up-regulated | significantly down-regulated | significantly up-regulated | significantly reduced |
